The source of these data is patent US20030113814A1, “Identification of modulators of gpr55 activity” (priority 2002, published 2003).

One experiment concerns the target T1, Human GPR55 (Homo sapiens, UniProt Q9Y2T6).
T1 construct: expressed in transfected cells; host or cells: Saccharomyces cerevisiae strains MMY14-MMY24 (STE2 and GPA1 deleted, Gpa1/Gα chimeras integrated)
The experiment can be described thus: Yeast FUS1-lacZ/FUS1-HIS3 reporter gene induction assay, yeast expressing p426GPD-GPR55 with Gpa1/Gα chimeras. The format is cell-based. The text has this: These strains contain a series of genetic modifications to enable coupling of heterologously expressed receptors to the expression of two reporter genes, via the endogenous yeast pheromone response signal transduction pathway. Importantly, the gene encoding the endogenous yeast pheromone receptor, STE2, has been deleted from these strains such that cells containing p426GPD-GPR55 will express GPR55 protein in place of Ste2 receptor protein. Furthermore, the gene encoding the G-protein α-subunit involved in the pheromone response, GPA1, has been deleted from these strains. To enable receptor coupling in strains MMY14-24, plasmid constructs encoding modified versions of GPA1 have been stably integrated into the yeast chromosome and are expressed in place of endogenous yeast GPA1. […] Generally, the modifications made to Gpa1 facilitate coupling of heterologously expressed receptors to the yeast pheromone response pathway.
In vivo assays of reporter gene induction were carried out by suspending yeast cells transformed as described above to a density of 0.02 OD600/ml in 200 μl SC-glucose (2%) medium lacking tryptophan, uracil and histidine. This medium was supplemented with 10 mM 3-aminotriazole and the β-galactosidase (lacZ) substrate chlorophenolred-β-D-galactopyranoside (CPRG; Boehringer Mannheim) to a concentration of 0.1 mg/ml. […] To visualise the yellow to red colour change reaction occurring on degradation of CPRG due to β-galactosidase, the medium was buffered to pH 7 with 0.1 M sodium phosphate. The assay was conducted in flat-bottomed sterile 96-well microtitre plates. Plates were incubated for 24 hours at 30° C. without agitation, and absorbance at 570 nm was determined using a Spectrofluor microtitre plate reader (Tecan).
In general terms: In a reporter assay the amount or activity of a reporter protein is the signal.

The target in a further experiment is T2, EDG1 (Homo sapiens, UniProt P21453).
T2 construct: expressed in transfected cells; host or cells: Saccharomyces cerevisiae reporter strain (inferred from context)
The experiment can be described thus: Yeast reporter gene assay with unrelated receptor. The format is cell-based.

Experiment [1] relates to control cells transformed with the vector p426GPD in combination with Gpa1/Gα13 and therefore lacking GPR55. Kind of experiment: Yeast reporter gene assay in control cells transformed with vector p426GPD (lacking GPR55). The format is cell-based, Saccharomyces cerevisiae. The following applies: data not shown. The text has this:
A system of yeast strains MMY14-MMY24 has been described previously (Olesnicky et al, EMBO J. 18, 2756-2763, 1999, Brown et al, Yeast 16, 11-22, 2000). These strains contain a series of genetic modifications to enable coupling of heterologously expressed receptors to the expression of two reporter genes, via the endogenous yeast pheromone response signal transduction pathway. Importantly, the gene encoding the endogenous yeast pheromone receptor, STE2, has been deleted from these strains such that cells containing p426GPD-GPR55 will express GPR55 protein in place of Ste2 receptor protein. Furthermore, the gene encoding the G-protein α-subunit involved in the pheromone response, GPA1, has been deleted from these strains. To enable receptor coupling in strains MMY14-24, plasmid constructs encoding modified versions of GPA1 have been stably integrated into the yeast chromosome and are expressed in place of endogenous yeast GPA1. […]
In vivo assays of reporter gene induction were carried out by suspending yeast cells transformed as described above to a density of 0.02 OD600/ml in 200 μl SC-glucose (2%) medium lacking tryptophan, uracil and histidine. […] Plates were incubated for 24 hours at 30° C. without agitation, and absorbance at 570 nm was determined using a Spectrofluor microtitre plate reader (Tecan).

T1 sequence (Q9Y2T6 whole entry): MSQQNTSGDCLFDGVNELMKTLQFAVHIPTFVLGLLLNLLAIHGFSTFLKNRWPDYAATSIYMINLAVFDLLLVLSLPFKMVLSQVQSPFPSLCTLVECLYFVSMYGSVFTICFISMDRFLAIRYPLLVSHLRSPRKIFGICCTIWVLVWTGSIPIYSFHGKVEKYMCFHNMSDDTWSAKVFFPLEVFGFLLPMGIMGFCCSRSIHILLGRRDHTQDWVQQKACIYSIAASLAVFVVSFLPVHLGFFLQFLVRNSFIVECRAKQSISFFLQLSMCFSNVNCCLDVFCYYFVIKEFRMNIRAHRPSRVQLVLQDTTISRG
T2 sequence (P21453 whole entry): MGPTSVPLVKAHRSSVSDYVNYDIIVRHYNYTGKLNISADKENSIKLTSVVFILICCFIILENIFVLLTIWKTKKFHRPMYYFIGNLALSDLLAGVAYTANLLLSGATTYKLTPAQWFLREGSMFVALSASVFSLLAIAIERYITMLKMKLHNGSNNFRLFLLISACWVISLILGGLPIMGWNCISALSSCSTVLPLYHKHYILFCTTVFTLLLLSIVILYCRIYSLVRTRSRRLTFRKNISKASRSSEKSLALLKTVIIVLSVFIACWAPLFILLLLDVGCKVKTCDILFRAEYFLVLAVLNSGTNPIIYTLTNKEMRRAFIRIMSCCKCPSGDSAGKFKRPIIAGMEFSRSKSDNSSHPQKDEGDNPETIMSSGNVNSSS

As for `Cc1c(C(=O)NN2CCCCC2)nn(-c2ccc(Cl)cc2Cl)c1-c1ccc(I)cc1` [AM251, N-(piperidin-1-yl)-5-(4-iodophenyl)-1-(2,4-dichlorophenyl)-4-methyl-1H-pyrazole-3-carboxamide], the “agonism at GPR 55” value at Human GPR55 (GPR 55 expressed in yeast containing Gpa1/GαI3, Gαi2 and Gαi3 chimeras (FIG. 3 legend)) is reported as “acts as an agonist”. Further, the “GPR55 activity in strain expressing Gpa1/Gα12” value on Human GPR55 (Gpa1/Gα12) is reported as “Activity has also been observed”. In addition, at Human GPR55 (Gpa1/Gαi2 or Gpa1/Gαi3 (FIG. 3)), the “GPR55 activity in strains expressing Gpa1/Gαi2 or Gpa1/Gαi3” value is given as “weaker activities”. At Human GPR55 (yeast co-expressing p426GPD-GPR55 and Gpa1/Gα13, response dependent on concentration (FIG. 3)), the reporter gene activity result was “significant increase”. At Human GPR55 (yeast reporter assay), the “activation of GPR55” value is “up to 60 fold over background”. Further, the “activation of unrelated receptors (EDG1)” value on EDG1 stood at 1.3 fold over background. Also, in experiment [1], the “increase in reporter gene activity in control cells” value was “not observed”.

Regarding `Cc1c(C(=O)NN2CCOCC2)nn(-c2ccc(Cl)cc2Cl)c1-c1ccc(I)cc1` [AM281, 1-(2,4-dichlorophenyl)-5-(4-iodophenyl)-4-methyl-N-4-morpholinyl-1H-pyrazole-3-carboxamide], the “activity at GPR55” value on Human GPR55 (tested at GPR55 in yeast, data not shown) is reported as “appeared active”.
